Consider two molecules from patent US20080305169A1, “Pharmaceutical Compositions Comprising Nitrogen-Containing Fused Ring Coumpounds” (Japan Tobacco Inc., priority 2006, published 2008).

Data set [1] is described as follows: Evaluation of stability on excipient compatibility, compound C (Experimental Example 11). Particulars: 60° C., 75% RH, 2 weeks. In kind it is physicochemical. From the text:
Evaluation of Stability on Excipient Compatibility
Compound C was physically mixed in various additives shown in Table 48 in a mortar (see Table 48 for mixing ratio), and the obtained mixed powder was placed in a glass sample bottle in a layer thickness of about 5 mm.
The glass sample bottle was placed in a desiccator humidity-conditioned to 75% RH (relative humidity) without capping, and the desiccator containing the bottle was preserved for 2 weeks in a constant-temperature equipment set to 60° C.
After the completion of the preservation, a 60 v/v % aqueous acetonitrile solution was added to a concentration of compound C of 0.5 mg/mL, and the mixture was subjected to a dissolution treatment by ultrasonication and a filtration treatment. Each sample was measured by high performance liquid chromatography, and the stability was evaluated based on the changes from the start of preservation.

For data set [2] the following is noted: Guideline for the management of hyperuricemia and gout (1st Edit.); cited from earlier work.

Turning to `O=C(c1cc(Cl)c(O)c(Cl)c1)N1CCOc2ccccc21` [Reference Example 3, (3,5-dichloro-4-hydroxyphenyl)-(2,3-dihydrobenzo[1,4]oxazin-4-yl)-methanone], in data set [1] (compounded with an additive other than calcium silicate), the “stability when compounded with an additive” value was “good stability”. In data set [1] (when calcium silicate is added), the “HPLC peak of decomposition product” value was “novel peak considered to derive from the decomposition product of compound C”.

For `O=c1[nH]c(=O)c2[nH]c(=O)[nH]c2[nH]1` [uric acid], the “dissolution concentration of uric acid in plasma” value in data set [2] was 7 mg/dL.
